Assay results as given in patent US20080312292A1, “Antipruritics” (priority 2002, published 2008).
Where two headings read alike, the source gives them in different places. Marks after values point to notes of the source that are not given here.

Key:
[1] = biological target: T1, Human cannabinoid receptor CB1R (Homo sapiens, UniProt P21554); experiment: Human cannabinoid receptor binding inhibition, [3H]CP55940, CB1R; settings: membranes of CB1R-expressing CHO cells, [3H]CP55940 0.5 nM; read-out: Ki CB1 receptor
T1 construct: expressed in transfected cells; host or cells: CHO cells
Protocol: (§1) The crude membrane fractions as Human cannabinoid receptor were then prepared from the CB1R or CB2R-expressing CHO cells. Receptor binding assay was performed by incubating the membranes with each test compound and 38,000 dpm [^3H]CP55940 (at a final concentration of 0.5 nM: NEN Life Science Products) in the assay buffer (50 mM Tris-HCl; 1 mM EDTA, 3 mM MgCl2, pH 7.4) containing 0.5% bovine serum albumin (BSA) for 2 hr at 25° C. The incubation mixture was filtered through 1% polyethylenimine (PEI)-treated GF/C glass filter and washed with 50 mM Tris-HCl (pH 7.4) containing 0.1% BSA. The radioactivity was then counted with a liquid scintillation counter. […] Ki value of test compound is calculated by obtained IC50 value and Kd value of [^3H]CP55940.

[2] = biological target: T2, Human cannabinoid receptor CB2R (Homo sapiens, UniProt P34972); experiment: Human cannabinoid receptor binding inhibition, [3H]CP55940, CB2R; settings: membranes of CB2R-expressing CHO cells, [3H]CP55940 0.5 nM; read-out: Ki CB2 receptor
T2 construct: expressed in transfected cells; host or cells: CHO cells
Protocol: as §1

human CB1R = biological target: T3, human CB1R (Homo sapiens, UniProt P21554); experiment: cell-based; settings: CHO cells expressing human CB1R; read-out: cAMP Inhibition: IC50 CB1
T3 construct: expressed in transfected cells; host or cells: CHO cells

human CB2R = biological target: T4, human CB2R (Homo sapiens, UniProt P34972); experiment: Cannabinoid receptor-mediated suppression of forskolin-stimulated cAMP synthesis, CB2R; type: cell-based; settings: CHO cells expressing human CB2R
T4 construct: expressed in transfected cells; host or cells: CHO cells

mouse CB1 receptor = biological target: T5, mouse CB1 receptor (Mus musculus, UniProt P47746); experiment: Binding inhibitory activity to mouse cannabinoid receptors, brain membrane fraction; design: species or system C57BL/6 J mice; settings: mouse brain membrane fraction; read-out: Binding Assay: Ki Brain (CB1)
T5 construct: The membrane fractions of mouse brain and spleen that abundantly express CB1 and CB2 receptor, respectively; from tissue; host or cells: mouse brain membrane fraction (C57BL/6 J)

mouse CB2 receptor = biological target: T6, mouse CB2 receptor (Mus musculus, UniProt P47936); experiment: Binding inhibitory activity to mouse cannabinoid receptors, spleen membrane fraction; design: species or system C57BL/6 J mice; settings: mouse spleen membrane fraction; read-out: Binding Assay: Ki Spleen (CB2)
T6 construct: The membrane fractions of mouse brain and spleen that abundantly express CB1 and CB2 receptor, respectively; from tissue; host or cells: mouse spleen membrane fraction (C57BL/6 J)

[3] = test system: compound 48/80-induced pruritus; experiment: Inhibitory effect on compound 48/80-induced pruritus in ICR strain mice; settings: 100 mg/kg (p.o.), ICR mice, compound 48/80-induced scratching

T4 sequence (P34972 whole entry): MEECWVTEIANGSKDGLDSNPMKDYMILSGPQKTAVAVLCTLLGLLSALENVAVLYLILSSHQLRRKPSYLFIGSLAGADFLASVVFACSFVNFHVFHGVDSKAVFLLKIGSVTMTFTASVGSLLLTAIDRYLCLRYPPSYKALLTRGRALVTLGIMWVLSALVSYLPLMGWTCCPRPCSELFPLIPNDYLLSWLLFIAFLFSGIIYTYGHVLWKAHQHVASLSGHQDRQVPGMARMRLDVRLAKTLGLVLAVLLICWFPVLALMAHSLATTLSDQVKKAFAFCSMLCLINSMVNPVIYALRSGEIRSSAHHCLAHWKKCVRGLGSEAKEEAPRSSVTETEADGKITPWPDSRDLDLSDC
T5 sequence (P47746 whole entry): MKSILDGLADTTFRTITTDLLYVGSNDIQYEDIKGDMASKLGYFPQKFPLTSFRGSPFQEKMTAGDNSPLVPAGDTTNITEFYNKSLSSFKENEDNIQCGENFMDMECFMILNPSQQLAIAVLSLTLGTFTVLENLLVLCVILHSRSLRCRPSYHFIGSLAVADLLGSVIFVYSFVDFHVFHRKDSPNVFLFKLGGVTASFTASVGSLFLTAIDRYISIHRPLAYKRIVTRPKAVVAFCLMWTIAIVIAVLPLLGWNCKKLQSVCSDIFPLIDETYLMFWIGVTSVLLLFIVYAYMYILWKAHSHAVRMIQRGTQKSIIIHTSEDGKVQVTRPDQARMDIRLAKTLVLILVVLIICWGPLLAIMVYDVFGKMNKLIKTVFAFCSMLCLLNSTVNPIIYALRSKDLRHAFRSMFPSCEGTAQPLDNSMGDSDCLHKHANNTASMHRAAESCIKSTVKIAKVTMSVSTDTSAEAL
T6 sequence (P47936 whole entry): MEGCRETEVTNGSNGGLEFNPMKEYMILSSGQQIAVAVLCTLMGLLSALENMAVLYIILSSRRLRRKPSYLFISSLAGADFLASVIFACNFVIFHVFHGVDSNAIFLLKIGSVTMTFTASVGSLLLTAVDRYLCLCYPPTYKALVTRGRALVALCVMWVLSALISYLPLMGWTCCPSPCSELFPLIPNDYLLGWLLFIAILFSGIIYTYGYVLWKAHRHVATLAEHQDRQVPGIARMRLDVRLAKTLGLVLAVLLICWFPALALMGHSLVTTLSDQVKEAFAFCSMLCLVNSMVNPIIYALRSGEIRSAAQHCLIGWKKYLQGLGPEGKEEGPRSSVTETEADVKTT
T2 sequence (P34972 whole entry): as the sequence (P34972 whole entry) above
T3 sequence (P21554 whole entry): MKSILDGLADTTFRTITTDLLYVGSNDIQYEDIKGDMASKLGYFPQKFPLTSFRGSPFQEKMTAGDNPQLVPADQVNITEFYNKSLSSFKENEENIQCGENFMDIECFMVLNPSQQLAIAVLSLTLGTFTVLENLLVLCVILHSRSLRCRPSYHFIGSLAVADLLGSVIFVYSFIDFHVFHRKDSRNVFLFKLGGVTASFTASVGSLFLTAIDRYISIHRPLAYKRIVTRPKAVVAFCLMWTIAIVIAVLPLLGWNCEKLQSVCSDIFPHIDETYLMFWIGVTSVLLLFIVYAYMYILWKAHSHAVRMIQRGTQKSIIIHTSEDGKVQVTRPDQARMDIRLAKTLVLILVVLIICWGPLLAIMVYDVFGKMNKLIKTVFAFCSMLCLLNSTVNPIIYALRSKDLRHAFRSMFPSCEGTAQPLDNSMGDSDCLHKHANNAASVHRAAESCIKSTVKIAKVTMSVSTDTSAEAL
T1 sequence (P21554 whole entry): as above

With `CCCCn1c2c(cc(C(=O)NCc3ccccc3)c1=O)CCCCCC2` [Compound 4-101] the Ki [1] was 890 nM, the Ki [2] was 1.5 nM and the IC50 (human CB1R) was 60.3 nM. The IC50 (human CB2R; forskolin-stimulated cAMP synthesis, read-out: CB2 receptor IC50) was 1.4 nM, the IC50 (human CB2R; read-out: cAMP Inhibition: IC50 CB2) was 1.4 nM and the Ki (mouse CB1 receptor) was 35 nM. For the same molecule, the Ki (mouse CB2 receptor) was 0.6 nM and the “Antipruritic Effect (%)” value [3] was 81** %.
